In patent US11104648B2, “Pyrazole derivative” (Zhejiang Research Institute of Chemical Industry Co., Ltd., priority 2018, dated 2021):
Read-outs that look alike come from different tables or passages of the source.

Key:
Type in all cases: in vivo
[1] = system: Eggs of Tetranychus Cinnabarinus; experiment: Activity assay of eggs of Tetranychus cinnabarinus (spray method, ovicidal); details: Tetranychus cinnabarinus; for pest or weed control at 2 µg/mL: concentration 2 mg/L; for pest or weed control at 5 µg/mL: concentration 5 mg/L, non-incubated eggs counted as dead
Experimental: According to the solubility of the test compound, the crude drug was dissolved in N N-dimethylformamide, and then prepared into a test solution of the desired concentration with 1‰ Tween 80 aqueous solution. The content of N. N-dimethylformamide in the solution should not exceed 10%.
Spray method. The broad bean leaves with petioles were cut and inserted into a bottle with water. A certain number of female mites were placed, 24h later, adult mites were removed, and spray treatment was performed in 24 h. The experiment was repeated three times, and a blank control was set, and placed to an observation room (26±2° C., humidity 70%˜80%, 16h light per day) for culture. When the blank control group was incubated, the results were investigated. The non-incubated ones were used as death for investigation.

[2] = system: Tetranychus cinnabarinus Nymphs; experiment: Activity assay of Tetranychus cinnabarinus nymphs (spray on broad bean leaves)
Experimental: According to the solubility of the test compound, the crude drug was dissolved in N, N-dimethylformamide, and then prepared into a test solution of the desired concentration with 1‰ Tween 80 aqueous solution. The content of N,N-dimethylformamide in the solution should not exceed 10%.
The broad bean leaves with petioles were cut and inserted into a small bottle with water. A certain number of brightly colored, active female adult mites were placed, 24h later, adult mites were removed, and leaves with insufficient eggs were removed. When eggs were hatched and grew into nymphs, spray treatment was performed. The experiment was repeated three times, and a blank control was set, and placed to an observation room (26±2° C., humidity 70%˜80%, 16h light per day) for culture. 48 h later, the results were investigated. The nymphs were gently touched during investigation, and if no response, they were regarded as deaths.

[3] = system: adult Tetranychus cinnabarinus; experiment: Activity assay of adult Tetranychus cinnabarinus (whole-plant spray on bean seedlings); details: 48 h; for pest or weed control at 1.25 µg/mL: concentration 1.25 mg/L; for pest or weed control at 2.5 µg/mL: concentration 2.5 mg/L
Experimental: According to the solubility of the test compound, the crude drug was dissolved in N, N-dimethlfornamide, and then prepared into a test solution of the desired concentration with 1‰ Tween 80 aqueous solution. The content of N,N-dimethylformamide in the solution should not exceed 10%.
Two euphylla bean seedlings were taken, after inoculated with adult Tetranychus cinnabarinus and the base number was investigated, whole plants were sprayed with a hand-held sprayer. The experiment was repeated three times for each treatment, after treatment, placed in a standard observation room after treatment, to investigate the survival number of mites in 48 hand calculate the death rate.

[4] = spray, read-out: ovicidal activity
[5] = eggs, parallel determination, read-out: Death rate (%)
[6] = 48 h, concentration 0.5 mg/L, read-out: nymph-killing activity
[7] = 48 h, concentration 2.5 mg/L, read-out: nymph-killing activity
[8] = 48 h, nymphs, concentration 0.5 mg/L, parallel determination, read-out: Death rate (%)
[9] = adult mites, parallel determination, read-out: Death rate (%)
[10] = read-out: adult mite-killing activity
[11] = 48 h, concentration 2 mg/L, read-out: nymph-killing activity
[12] = concentration 2.5 mg/L, 48 h, read-out: nymph-killing activity

Row | Structure (SMILES) | pest or weed control at 5 µg/mL [1, 4] | pest or weed control at 2.5 µg/mL [2, 7] | pest or weed control at 2.5 µg/mL [3, 10] | also measured
1 | CCCC(=O)OC(C)OC(=C(C#N)c1ccc(C(C)(C)C)cc1)c1ccccc1C(F)(F)F (stereo not drawn) [Compound 8-3, reference compound] | < 30% | < 80% | < 80% | pest or weed control at 2 µg/mL [1, 4]: 0%; pest or weed control at 2 µg/mL [1, 5]: 0%; pest or weed control at 0.5 µg/mL [2, 6]: < 30%; pest or weed control at 0.5 µg/mL [2, 8]: 30%; pest or weed control at 1.25 µg/mL [3, 9]: 45%; pest or weed control at 1.25 µg/mL [3, 10]: < 50%
2 | COC(=O)CSC(=O)OC(C)O/C(=C(/C#N)c1ccc(C(C)(C)C)cc1)c1cc(C)nn1C (stereo not drawn) [Compound 513] | ≥ 90% | ≥ 95% | ≥ 90% | 
3 | CCC(C)(C)C(=O)OCO/C(=C(/C#N)c1ccc(C(C)(C)C)cc1)c1c(C)c(C)nn1C [Compound 166] | ≥ 90% | ≥ 95% | ≥ 90% | 
4 | CCOC(=O)OCO/C(=C(/C#N)c1ccc(C(C)(C)C)cc1)c1cc(C)nn1C [Compound 452] | ≥ 90% | ≥ 95% | ≥ 90% | 
5 | CCSC(=O)OC(C)O/C(=C(/C#N)c1ccc(C(C)(C)C)cc1)c1cc(C)nn1C (stereo not drawn) [Compound 512] | ≥ 90% | ≥ 95% | ≥ 90% | 
6 | CCn1nc(C)cc1/C(OCOC(=O)CSC)=C(\C#N)c1ccc(C(C)(C)C)cc1 [Compound 235] | ≥ 90% | ≥ 95% | ≥ 90% | 
7 | CCn1nc(C)c(C)c1/C(OC(C)OC(=O)C(F)(F)F)=C(\C#N)c1ccc(C(C)(C)C)cc1 (stereo not drawn) [Compound 413] | ≥ 90% | ≥ 95% | ≥ 90% | 
8 | CCCCC(=O)OCO/C(=C(/C#N)c1ccc(C(C)(C)C)cc1)c1c(C)c(C)nn1C [Compound 156] | ≥ 90% | ≥ 95% | ≥ 90% | 
9 | CCCCC(=O)OC(C)O/C(=C(/C#N)c1ccc(C(C)(C)C)cc1)c1cc(C)nn1CC (stereo not drawn) [Compound 256] | ≥ 90% | ≥ 95% | ≥ 90% | 
10 | Cc1nn(C)c(/C(OC(C)OC(=O)C(C)C)=C(\C#N)c2ccc(C(C)(C)C)cc2)c1Cl (stereo not drawn) [Compound 104] | ≥ 90% | ≥ 95% | ≥ 90% | 
11 | CCn1nc(C)c(Cl)c1/C(OCOC(=O)c1ccccc1)=C(\C#N)c1ccc(C(C)(C)C)cc1 [Compound 314] | ≥ 90% | ≥ 95% | ≥ 90% | 
12 | CCn1nc(C)cc1/C(OCOC(C)=O)=C(\C#N)c1ccc(C(C)(C)C)cc1 [Compound 226] | ≥ 90% | ≥ 95% | ≥ 90% | pest or weed control at 2 µg/mL [1, 4]: ≥ 90%; pest or weed control at 2 µg/mL [1, 5]: 100%; pest or weed control at 2 µg/mL [2, 11]: ≥ 90%; pest or weed control at 0.5 µg/mL [2, 8]: 90%; pest or weed control at 1.25 µg/mL [3, 9]: 96%; pest or weed control at 1.25 µg/mL [3, 10]: ≥ 90%
13 | CCn1nc(C)c(C)c1/C(OCOC(=O)C(C)(C)C)=C(\C#N)c1ccc(C(C)(C)C)cc1 [Compound 380] | ≥ 90% | ≥ 95% | ≥ 90% | 
14 | CCn1nc(C)c(Cl)c1/C(OC(C)OC(=O)Cc1ccccc1)=C(\C#N)c1ccc(C(C)(C)C)cc1 (stereo not drawn) [Compound 340] | ≥ 90% |  | ≥ 90% | pest or weed control at 2.5 µg/mL [2, 12]: ≥ 95%
15 | CCn1nc(C)cc1/C(OC(C)OC(=O)C(C)(C)CC)=C(\C#N)c1ccc(C(C)(C)C)cc1 (stereo not drawn) [Compound 266] | ≥ 90% | ≥ 95% | ≥ 90% | 
16 | Cc1cc(/C(OC(C)OC(=O)C2CCCCC2)=C(\C#N)c2ccc(C(C)(C)C)cc2)n(C)n1 (stereo not drawn) [Compound 36] | ≥ 90% | ≥ 95% | ≥ 90% | 
17 | CCCCCOC(=O)OCO/C(=C(/C#N)c1ccc(C(C)(C)C)cc1)c1c(C)c(C)nn1CC [Compound 940] | ≥ 90% | ≥ 95% | ≥ 90% | pest or weed control at 2 µg/mL [1, 4]: ≥ 90%; pest or weed control at 2 µg/mL [2, 11]: ≥ 90%; pest or weed control at 1.25 µg/mL [3, 10]: ≥ 90%

Row | Structure (SMILES) | pest or weed control at 5 µg/mL [1, 4] | pest or weed control at 2.5 µg/mL [2, 7] | pest or weed control at 2.5 µg/mL [3, 10] | also measured
18 | CCn1nc(C)cc1/C(OCOC(=O)OCCOC)=C(\C#N)c1ccc(C(C)(C)C)cc1 [Compound 564] | ≥ 90% | ≥ 95% | ≥ 90% | 
19 | CCCC(=O)OCO/C(=C(/C#N)c1ccc(C(C)(C)C)cc1)c1c(Cl)c(C)nn1CC [Compound 303] | ≥ 90% | ≥ 95% | ≥ 90% | 
20 | CCCCC(=O)OC(C)O/C(=C(/C#N)c1ccc(C(C)(C)C)cc1)c1c(Cl)c(C)nn1CC (stereo not drawn) [Compound 331] | ≥ 90% | ≥ 95% | ≥ 90% | 
21 | CCn1nc(C)cc1/C(OCOC(=O)Cc1ccccc1)=C(\C#N)c1ccc(C(C)(C)C)cc1 [Compound 240] | ≥ 90% |  | ≥ 90% | pest or weed control at 2.5 µg/mL [2, 12]: ≥ 95%
22 | C=CC(=O)OCO/C(=C(/C#N)c1ccc(C(C)(C)C)cc1)c1c(C)c(C)nn1CC [Compound 392] | ≥ 90% | ≥ 95% | ≥ 90% | 
23 | Cc1nn(C)c(/C(OCOC(=O)CC(C)C)=C(\C#N)c2ccc(C(C)(C)C)cc2)c1C [Compound 157] | ≥ 90% | ≥ 95% | ≥ 90% | 
24 | Cc1cc(/C(OC(C)OC(=O)OCC(F)(F)F)=C(\C#N)c2ccc(C(C)(C)C)cc2)n(C)n1 (stereo not drawn) [Compound 499] | ≥ 90% | ≥ 95% | ≥ 90% | 
25 | CCCCC(=O)OC(C)O/C(=C(/C#N)c1ccc(C(C)(C)C)cc1)c1c(C)c(C)nn1C (stereo not drawn) [Compound 181] | ≥ 90% | ≥ 95% | ≥ 90% | 
26 | COC(=O)COC(=O)OC(C)O/C(=C(/C#N)c1ccc(C(C)(C)C)cc1)c1cc(C)nn1C (stereo not drawn) [Compound 509] | ≥ 90% | ≥ 95% | ≥ 90% | 
27 | CCn1nc(C)c(Cl)c1/C(OCOC(=O)C(C)(C)CC)=C(\C#N)c1ccc(C(C)(C)C)cc1 [Compound 316] | ≥ 90% | ≥ 95% | ≥ 90% | 
28 | Cc1cc(/C(OCOC(=O)C(F)(F)F)=C(\C#N)c2ccc(C(C)(C)C)cc2)n(C)n1 [Compound 13] | ≥ 90% | ≥ 95% | ≥ 90% | 
29 | CCCCCOC(=O)OC(C)O/C(=C(/C#N)c1ccc(C(C)(C)C)cc1)c1cc(C)nn1CC (stereo not drawn) [Compound 588] | ≥ 90% | ≥ 95% | ≥ 90% | 
30 | Cc1nn(C)c(/C(OCOC(=O)Cc2ccccc2)=C(\C#N)c2ccc(C(C)(C)C)cc2)c1Cl [Compound 90] | ≥ 90% |  | ≥ 90% | pest or weed control at 2.5 µg/mL [2, 12]: ≥ 95%
31 | CCn1nc(C)cc1/C(OC(C)OC(=O)COC)=C(\C#N)c1ccc(C(C)(C)C)cc1 (stereo not drawn) [Compound 258] | ≥ 90% | ≥ 95% | ≥ 90% | 
32 | CCCC(=O)OCOC(=C(C#N)c1ccc(C(C)(C)C)cc1)c1ccccc1C(F)(F)F [Compound 8-4, reference compound] | < 30% | < 80% | < 80% | pest or weed control at 2 µg/mL [1, 4]: 0%; pest or weed control at 2 µg/mL [1, 5]: 0%; pest or weed control at 0.5 µg/mL [2, 6]: < 30%; pest or weed control at 0.5 µg/mL [2, 8]: 15%; pest or weed control at 1.25 µg/mL [3, 9]: 50%; pest or weed control at 1.25 µg/mL [3, 10]: < 50%
33 | CCCC(=O)OC(C)O/C(=C(/C#N)c1ccc(C(C)(C)C)cc1)c1c(C)c(C)nn1CC (stereo not drawn) [Compound 403] | ≥ 90% | ≥ 95% | ≥ 90% | 
